From US20200017467A1, “NOVEL TRIAZOLE DERIVATIVES” (BAYER CROPSCIENCE AKTIENGESELLSCHAFT, priority 2017, published 2020)
Each block holds one compound with its values, some of them ahead of it.

Assays:
[1] = Log P by HPLC on reversed phase columns (EEC directive 79/831 Annex V.A8); assay type: physicochemical; conditions: method [a]: LC-UV, acidic range, 0.1% formic acid in water and acetonitrile; for chromatographic logP: reversed phase HPLC columns
Protocol: Log P values: Measurement of Log P values was performed according to EEC directive 79/831 Annex V.A8 by HPLC (High Performance Liquid Chromatography) on reversed phase columns with the following methods: • ^[a] Log P value is determined by measurement of LC-UV, in an acidic range, with 0.1% formic acid in water and acetonitrile as eluent (linear gradient from 10% acetonitrile to 95% acetonitrile). • ^[b] Log P value is determined by measurement of LC-UV, in a neutral range, with 0.001 molar ammonium acetate solution in water and acetonitrile as eluent (linear gradient from 10% acetonitrile to 95% acetonitrile). • ^[c] Log P value is determined by measurement of LC-UV, in an acidic range, with 0.1% phosphoric acid and acetonitrile as eluent (linear gradient from 10% acetonitrile to 95% acetonitrile). If more than one Log P value is available within the same method, all the values are given and separated by “+”. Calibration was done with straight-chain alkan2-ones (with 3 to 16 carbon atoms) with known Log P values (measurement of Log P values using retention times with linear interpolation between successive alkanones). Lambda-max-values were determined using UV-spectra from 200 nm to 400 nm and the peak values of the chromatographic signals.

Sphaerotheca fuliginea = test: In vivo preventive test on Sphaerotheca fuliginea (powdery mildew on cucurbits); conditions: Podosphaera fuliginea, 360 h; 500 ppm of active ingredient; gherkin, preventive spray, evaluated 15 days after inoculation; read-out: efficacy
Protocol: Example C: In Vivo Preventive Test on Sphaerotheca fuliginea (Powdery Mildew on Cucurbits) [table] The active ingredients were made soluble and homogenized in a mixture of dimethyl sulfoxide/acetone//Tween® 80 and then diluted in water to the desired concentration. Young plants of gherkin were treated by spraying the active ingredient prepared as described above. Control plants were treated only with an aqueous solution of acetone/dimethyl sulfoxide/Tween® 80. After 24 hours, the plants were contaminated by spraying the leaves with an aqueous suspension of Sphaerotheca fuliginea spores. The contaminated gherkin plants were incubated for 72 hours at 18° C. and at 100% relative humidity and then for 12 days at 20° C. and at 70-80% relative humidity. The test was evaluated 15 days after the inoculation. 0% means an efficacy which corresponds to that of the control plants while an efficacy of 100% means that no disease was observed.

Septoria tritici = test: In vivo preventive test on Septoria tritici (leaf spot on wheat); conditions: Zymoseptoria tritici, 576 h, 500 ppm of active ingredient, preventive spray, evaluated 24 days after inoculation, read-out: efficacy
Protocol: Example B: In Vivo Preventive Test on Septoria tritici (Leaf Spot on Wheat) [table] The active ingredients were made soluble and homogenized in a mixture of dimethyl sulfoxide/acetone//Tween® 80 and then diluted in water to the desired concentration. Young plants of wheat were treated by spraying the active ingredient prepared as described above. Control plants were treated only with an aqueous solution of acetone/dimethyl sulfoxide/Tween® 80. After 24 hours, the plants were contaminated by spraying the leaves with an aqueous suspension of Septoria tritici spores. The contaminated wheat plants were incubated for 72 hours at 18° C. and at 100% relative humidity and then for 21 days at 20° C. and at 90% relative humidity. The test was evaluated 24 days after the inoculation. 0% means an efficacy which corresponds to that of the control plants while an efficacy of 100% means that no disease was observed.

Puccinia recondita = test: In vivo preventive test on Puccinia recondita (brown rust on wheat); conditions: 264 h, 500 ppm of active ingredient, preventive spray, evaluated 11 days after inoculation, read-out: efficacy
Protocol: (§1) Example A: In Vivo Preventive Test on Puccinia recondita (Brown Rust on Wheat) [table] The active ingredients were made soluble and homogenized in a mixture of dimethyl sulfoxide/acetone//Tween® 80 and then diluted in water to the desired concentration. Young plants of wheat were treated by spraying the active ingredient prepared as described above. Control plants were treated only with an aqueous solution of acetone/dimethyl sulfoxide/Tween® 80. After 24 hours, the plants were contaminated by spraying the leaves with an aqueous suspension of Puccinia recondita spores. The contaminated wheat plants were incubated for 24 hours at 20° C. and at 100% relative humidity and then for 10 days at 20° C. and at 70-80% relative humidity. The test was evaluated 11 days after the inoculation. 0% means an efficacy which corresponds to that of the control plants while an efficacy of 100% means that no disease was observed.

Uromyces appendiculatus = test: In vivo preventive test on Uromyces appendiculatus (bean rust); conditions: 264 h, 500 ppm of active ingredient, preventive spray, evaluated 11 days after inoculation, read-out: efficacy
Protocol: as §1, with “D:” for “A:”, “Uromyces appendiculatus (Bean Rust)” for “Puccinia recondita (Brown Rust on Wheat)”, “bean” for “wheat”, “Uromyces appendiculatus” for “Puccinia recondita”

[2] = system: Blumeria graminis fsp. hordei; test: In vivo preventive Blumeria test (barley); conditions: 168 h, 500 ppm of active ingredient, preventive spray, evaluated 7 days after inoculation, read-out: efficacy
Protocol: Example E: In Vivo Preventive Blumeria Test (Barlev) [table] To produce a suitable preparation of active compound, 1 part by weight of active compound or active compound combination was mixed with the stated amounts of solvent and emulsifier, and the concentrate was diluted with water to the desired concentration. To test for preventive activity, young plants were sprayed with the preparation of active compound or active compound combination at the stated rate of application. After the spray coating had been dried, the plants were dusted with spores of Blumeria graminis fsp. hordei. The plants were placed in the greenhouse at a temperature of approximately 18° C. and a relative atmospheric humidity of approximately 80% to promote the development of mildew pustules. The test was evaluated 7 days after the inoculation. 0% means an efficacy which corresponds to that of the untreated control, while an efficacy of 100% means that no disease is observed.

SMILES: CC(=O)c1ccc(Oc2ccc(F)nc2)nc1Cl [V-08]
- LogP ([1]; compounds of formula (V)): 2.39^[a]

SMILES: OC(Cn1cncn1)c1ccc(Oc2ccc(Cl)nc2)nc1Cl (stereo not drawn) [I-11]
- LogP ([1]; compounds of formula (I)): 1.79^[a]

SMILES: CC(=O)c1cnc(Oc2ccc(Br)nc2)cc1C(F)(F)F [V-07]
- LogP ([1]; compounds of formula (V)): 3.17^[a]

SMILES: CC(=O)c1ccc(Oc2ccc(Br)nc2)nc1C(F)(F)F [V-01, 1-[6-[(6-bromo-3-pyridyl)oxy]-2-(trifluoromethyl)-3-pyridyl]ethanone]
- chromatographic logP ([1]; compounds of formula (V)): 3.12

SMILES: CC(=O)c1ccc(Oc2ccc(Cl)nc2)nc1C(F)(F)F [V-05]
- LogP ([1]; compounds of formula (V)): 3.00^[a]

SMILES: CC(=O)c1ccc(Oc2ccc(Cl)nc2)nc1Cl [V-03]
- LogP ([1]; compounds of formula (V)): 2.66^[a]

SMILES: OC(Cn1cncn1)c1ccc(Oc2ccc(Cl)nc2)nc1C(F)(F)F (stereo not drawn) [I-10]
- LogP ([1]; compounds of formula (I)): 2.07^[a]

SMILES: OC(Cn1cncn1)c1cnc(Oc2ccc(C(F)(F)F)nc2)cc1C(F)(F)F (stereo not drawn) [I-08]
- LogP ([1]; compounds of formula (I)): 2.35^[a]

SMILES: OC(Cn1cncn1)c1ccc(Oc2ccc(Br)nc2)nc1C(F)(F)F (stereo not drawn) [I-12, 1-[6-[(6-bromo-3-pyridyl)oxy]-2-(trifluoromethyl)-3-pyridyl]-2-(1,2,4-triazol-1-yl)ethanol]
- pest or weed control at 500 ppm (Sphaerotheca fuliginea): 90 to 100%
- chromatographic logP ([1]; compounds of formula (I)): 2.03
- pest or weed control at 500 ppm [2]: 90 to 100%
- pest or weed control at 500 ppm (Septoria tritici): 90 to 100%
- pest or weed control at 500 ppm (Puccinia recondita): 80 to 89%
- pest or weed control at 500 ppm (Uromyces appendiculatus): 90 to 100%

SMILES: OC(Cn1cncn1)c1cnc(Oc2ccc(Cl)nc2)cc1C(F)(F)F (stereo not drawn) [I-14, 1-[6-[(6-chloro-3-pyridyl)oxy]-4-(trifluoromethyl)-3-pyridyl]-2-(1,24-triazol-1-yl)ethanol]
- pest or weed control at 500 ppm (Sphaerotheca fuliginea): 90 to 100%
- chromatographic logP ([1]; compounds of formula (I)): 1.99
- pest or weed control at 500 ppm [2]: 90 to 100%
- pest or weed control at 500 ppm (Septoria tritici): 90 to 100%
- pest or weed control at 500 ppm (Puccinia recondita): 90 to 100%
- pest or weed control at 500 ppm (Uromyces appendiculatus): 90 to 100%

SMILES: CC(=O)c1ccc(Oc2ccc(C(F)(F)F)nc2)nc1C(F)(F)F [V-02, 1-[2-(trifluoromethyl)-6-[[6-(trifluoromethyl)-3-pyridyl]oxy]-3-pyridyl]ethanone]
- chromatographic logP ([1]; compounds of formula (V)): 3.26

SMILES: CC(O)(Cn1cncn1)c1ccc(Oc2ccc(Cl)nc2)nc1Cl (stereo not drawn) [I-03]
- LogP ([1]; compounds of formula (I)): 2.04^[a]

SMILES: CC(=O)c1cnc(Oc2ccc(Cl)nc2)cc1Cl [V-10]
- LogP ([1]; compounds of formula (V)): 2.59^[a]

SMILES: CC(=O)c1ccc(Oc2ccc(C)nc2)nc1Cl [V-09]
- LogP ([1]; compounds of formula (V)): 1.42^[a]

SMILES: CC(=O)c1cnc(Oc2ccc(C(F)(F)F)nc2)cc1C(F)(F)F [V-04]
- LogP ([1]; compounds of formula (V)): 3.44^[a]

SMILES: CC(=O)c1cnc(Oc2ccc(Cl)nc2)cc1C(F)(F)F [V-06, 1-[6-[(6-chloro-3-pyridyl)oxy]-4-(trifluoromethyl)-3-pyridyl]ethanone]
- chromatographic logP ([1]; compounds of formula (V)): 3

Second part, led by results:

- LogP ([1]; compounds of formula (VI)): 3.00^[a]
SMILES: O=C(CCl)c1ccc(Oc2ccc(Cl)nc2)nc1Cl [VI-03]

- chromatographic logP ([1]; compounds of formula (VII)): 2.21
SMILES: O=C(Cn1cncn1)c1cnc(Oc2ccc(Cl)nc2)cc1C(F)(F)F [VII-06, 1-[6-[(6-chloro-3-pyridyl)oxy]-4-(trifluoromethyl)-3-pyridyl]-2-(1,2,4-triazol-1-yl)ethanone]
- pest or weed control at 500 ppm (Sphaerotheca fuliginea): 90 to 100%
- pest or weed control at 500 ppm (Septoria tritici): 80 to 89%

- LogP ([1]; compounds of formula (VI)): 3.64^[a]
SMILES: O=C(CCl)c1cnc(Oc2ccc(C(F)(F)F)nc2)cc1C(F)(F)F [VI-04]

- chromatographic logP ([1]; compounds of formula (VI)): 3.6
SMILES: O=C(CCl)c1ccc(Oc2ccc(C(F)(F)F)nc2)nc1C(F)(F)F [VI-02, 2-chloro-1-[2-(trifluoromethyl)-6-[[6-(trifluoromethyl)-3-pyridyl]oxy]-3-pyridyl]ethanone]

- LogP ([1]; compounds of formula (VII)): 2.94^[a]
SMILES: O=C(Cn1cncn1)c1cnc(Oc2ccc(Br)nc2)cc1C(F)(F)F [VII-07]

- chromatographic logP ([1]; compounds of formula (VII)): 2.43
SMILES: O=C(Cn1cncn1)c1ccc(Oc2ccc(C(F)(F)F)nc2)nc1C(F)(F)F [VII-02, 2-(1,2,4-triazol-1-yl)-1-[2-(trifluoromethyl)-6-[[6-(trifluoromethyl)-3-pyridyl]oxy]-3-pyridyl]ethanone]
- pest or weed control at 500 ppm (Sphaerotheca fuliginea): 90 to 100%
- pest or weed control at 500 ppm (Septoria tritici): 90 to 100%
- pest or weed control at 500 ppm (Puccinia recondita): 80 to 89%
- pest or weed control at 500 ppm (Uromyces appendiculatus): 90 to 100%

- LogP ([1]; compounds of formula (VI)): 3.27^[a]
SMILES: O=C(CCl)c1ccc(Oc2ccc(Cl)nc2)nc1C(F)(F)F [VI-05]

- LogP ([1]; compounds of formula (VII)): 1.99^[a]
SMILES: O=C(Cn1cncn1)c1ccc(Oc2ccc(Cl)nc2)nc1Cl [VII-03]

- LogP ([1]; compounds of formula (VII)): 2.66^[a]
SMILES: O=C(Cn1cncn1)c1cnc(Oc2ccc(C(F)(F)F)nc2)cc1C(F)(F)F [VII-04]

- chromatographic logP ([1]; compounds of formula (VII)): 2.23
SMILES: O=C(Cn1cncn1)c1ccc(Oc2ccc(Br)nc2)nc1C(F)(F)F [VII-01, 1-[6-[(6-bromo-3-pyridyl)oxy]-2-(trifluoromethyl)-3-pyridyl]-2-(1,2,4-triazol-1-yl)ethanone]
- pest or weed control at 500 ppm (Sphaerotheca fuliginea): 90 to 100%
- pest or weed control at 500 ppm (Septoria tritici): 90 to 100%
- pest or weed control at 500 ppm (Puccinia recondita): 80 to 89%
- pest or weed control at 500 ppm (Uromyces appendiculatus): 90 to 100%

- LogP ([1]; compounds of formula (VII)): 2.23^[a]
SMILES: O=C(Cn1cncn1)c1ccc(Oc2ccc(Cl)nc2)nc1C(F)(F)F [VII-05]

- chromatographic logP ([1]; compounds of formula (VI)): 3.44
SMILES: O=C(CCl)c1ccc(Oc2ccc(Br)nc2)nc1C(F)(F)F [VI-01, 1-[6-[(6-bromo-3-pyridyl)oxy]-2-(trifluoromethyl)-3-pyridyl]-2-chloro-ethanone]
